This passage reports IC50 and EC50 results from publication PMC10453993 (Emerging Microbes & Infections, 2023).

The target in assay [1] is T1, recombinant SARS-CoV-2 3CLpro (Severe acute respiratory syndrome coronavirus 2, UniProt P0DTD1). The assay can be described thus: biochemical.
In assay [2] the target is T1, recombinant SARS-CoV-2 3CLpro. The assay can be described thus: cell-based.
In the next assay the test system is HCoV-229E. As to the kind of experiment: microbe, parasite or virus in culture. In kind it is cell-based. The conditions noted are these: Human coronavirus 229E, Caco-2, read-out: HCoV-229E EC50.
For assay [3], the system named is SARS-CoV-2 B.1.617.2 Delta. As to the kind of experiment: microbe, parasite or virus in culture. The conditions noted are these: Severe acute respiratory syndrome coronavirus 2, Calu-3, read-out: Delta EC50. It counts as cell-based.
In another assay the test system is SARS-CoV-2 Omicron BA.5. The assay can be described thus: microbe, parasite or virus in culture. It counts as cell-based. The conditions noted are these: Severe acute respiratory syndrome coronavirus 2, Calu-3, read-out: BA.5 EC50 Calu-3, nucleocapsid, Calu-3, nucleocapsid staining.
Assay [4] concerns SARS-CoV-2 Omicron BQ.1.1. As to the kind of experiment: microbe, parasite or virus in culture. The conditions noted are these: Severe acute respiratory syndrome coronavirus 2, Calu-3, read-out: BQ.1.1 EC50 Calu-3, nucleocapsid. In kind it is cell-based.
Assay [5] relates to SARS-CoV-2 Omicron XBB.1.5. The assay can be described thus: microbe, parasite or virus in culture. In kind it is cell-based. The conditions noted are these: Severe acute respiratory syndrome coronavirus 2, Caco-2, read-out: XBB.1.5 EC50, nucleocapsid.

In the case of `COc1ccc(N(Cc2cc(Cl)cs2)C(=O)Cc2cncc3ccccc23)cc1` [C2, N-((4-chlorothiophen-2-yl)methyl)-2-(isoquinolin-4-yl)-N-(4-methoxyphenyl)acetamide], the results for the IC50 in assay [1] and in assay [2] were 8500 ± 1700 nM and 600 ± 200 nM, respectively. In the assay with HCoV-229E, the EC50 was 5600 ± 1400 nM.
Consider `CC(C)(C)c1ccc(N(Cc2cc(Cl)cs2)C(=O)Cc2cncc3ccccc23)cc1` [C3, N-(4-(tert-butyl)phenyl)-N-((4-chlorothiophen-2-yl)methyl)-2-(isoquinolin-4-yl)acetamide], for which the IC50 stood at 5000 ± 300 nM in assay [1] and 1200 ± 1000 nM in assay [2]. Also, in the assay on HCoV-229E, the EC50 amounted to 9600 ± 1000 nM.
Regarding `CSc1ccc(N(Cc2cc(Cl)cs2)C(=O)Cc2cncc3ccccc23)cc1` [C4, N-((4-chlorothiophen-2-yl)methyl)-2-(isoquinolin-4-yl)-N-(4-(methylthio)phenyl)acetamide], the IC50 in assay [1] came out at 2300 ± 200 nM; in assay [2], 600 ± 300 nM. In addition, the EC50 in the assay on HCoV-229E is 7900 ± 3800 nM.
On to `CN(C)c1ccc(N(Cc2cc(Cl)cs2)C(=O)Cc2cncc3ccccc23)cc1` [C5, N-((4-chlorothiophen-2-yl)methyl)-N-(4-(dimethylamino)phenyl)-2-(isoquinolin-4-yl)acetamide], for which the EC50 in assay [3] was 3200 nM; with SARS-CoV-2 Omicron BA.5, 100 nM; in assay [4] it was 300 nM; in assay [5] it was 100 nM; with HCoV-229E, 4200 ± 700 nM. Further, the IC50 in assay [1] was 900 ± 600 nM.
With `CN(C)c1ccc(N(Cc2cc(Cl)cs2)C(=O)Cc2cncc3c(O)cccc23)cc1` [C5b, N-((4-chlorothiophen-2-yl)methyl)-N-(4-(dimethylamino)phenyl)-2-(8-hydroxyisoquinolin-4-yl)acetamide], in assay [1], the IC50 is 4500 ± 1000 nM.
Same read-out and setting: then `C=CCC(c1cc(Cl)cs1)N(C(=O)Cc1cncc2ccccc12)c1ccc(N(C)C)cc1` (stereo not drawn) [C5c, N-(1-(4-chlorothiophen-2-yl)but-3-en-1-yl)-N-(4-(dimethylamino)phenyl)-2-(isoquinolin-4-yl)acetamide], with 1400 ± 800 nM.
`COc1ccc(Cl)cc1CN(C(=O)Cc1cncc2ccccc12)c1ccc(N(C)C)cc1` [C5d, N-(5-chloro-2-methoxybenzyl)-N-(4-(dimethylamino)phenyl)-2-(isoquinolin-4-yl)acetamide]: in assay [1], the IC50 worked out at 2200 ± 700 nM.
On the same count and under the same terms, then `CN(C)c1ccc(N(Cc2cccc(Br)c2)C(=O)Cc2cncc3ccccc23)cc1` [C5e, N-(3-bromobenzyl)-N-(4-(dimethylamino)phenyl)-2-(isoquinolin-4-yl)acetamide], with 1400 ± 800 nM.
`CC(C)(C)[C@H](NC(=O)C(F)(F)F)C(=O)N1C[C@H]2[C@@H]([C@H]1C(=O)N[C@H](C#N)C[C@@H]1CCNC1=O)C2(C)C` [C7, Nirmatrelvir, reference compound]: the EC50 in assay [3] was found to be 1300 nM; in the assay with SARS-CoV-2 Omicron BA.5, 400 nM; in assay [4], 400 nM; in assay [5] it was 300 nM; in the assay on HCoV-229E, 2000 ± 1200 nM.
